Test results taken from ChEMBL document CHEMBL4732270, “Cell Permeability of Isomeric Macrocycles: Predictions and NMR Studies” (ACS Med Chem Lett, 2021).

Assay: Lipophilicity, log D of compound at pH 7.4 by UPLC-MS/MS analysis
Type: physicochemical
Conditions: buffer

Row | SMILES | logD
1 | COC(=O)[C@@H]1CSCc2ccccc2C(=O)OC[C@H](NC(=O)[C@@H]2CCCN2C(C)=O)CN1 | 0.7
2 | COC(=O)[C@H]1CSCc2ccccc2C(=O)OC[C@H](NC(=O)[C@@H]2CCCN2C(C)=O)CN1 | 0.65
3 | COC(=O)[C@@H]1CSCc2ccccc2C(=O)OC[C@@H](NC(=O)[C@@H]2CCCN2C(C)=O)CN1 | 0.43
4 | COC(=O)[C@H]1CSCc2ccccc2C(=O)OC[C@@H](NC(=O)[C@@H]2CCCN2C(C)=O)CN1 | 0.6
